Where “and” joins values, the source holds several entries; their conditions need not be identical. Equal entries are not always repeated.
Legend:
PfCRT^3D7 [1] = biological target: T1, PfCRT^3D7 (Plasmodium falciparum, UniProt Q8IBZ9); assay: cell-based; type: cell-based
Source text: (§1) The orientation of PfCRT in the parasite’s DV membrane, and also in the oocyte plasma membrane, is such that its N- and C-termini extend into the cytosol. The oocytes were suspended in a reaction buffer adjusted to pH 5.5 to mimic the pH of the DV lumen[1],[2]. In this scenario, the transport of a substrate via PfCRT from the acidic extracellular solution into the oocyte cytosol[15] is analogous to the parasite’s PfCRT-mediated efflux of a substrate from the acidic DV and into the cytosol. Unless specified otherwise, this is the direction in which substrate transport was measured in the oocyte assays.
(§2) Unless specified otherwise, the transport assays were conducted over 1.5 h at 27.5 °C and the reaction buffer was ND96 (96 mM NaCl, 2 mM KCl, 1 mM MgCl2, 1.8 mM CaCl2, 10 mM MES and 10 mM Tris-base) at pH 5.5.
(§3) Ten oocytes were washed twice with the relevant ND96 buffer. […] The assay was terminated by removing the reaction buffer and washing the oocytes with ice-cold ND96 buffer. The oocytes were lysed in 10% (w/v) sodium dodecyl sulfate (SDS) and the radioactivity accumulated within each oocyte was measured with a MicroBeta^2 microplate liquid scintillation analyser (PerkinElmer).
(§4) At least four independent experiments were performed (on different days and using oocytes from different frogs), and within each experiment measurements were made from ten oocytes per treatment.

non-expressing oocytes [2] = assay: cells; type: cell-based, Xenopus laevis
Source text: as §1, §2, §3, §4

non-expressing oocytes [3] = type: cell-based, Xenopus laevis
Description: as §2
The intracellular concentrations were calculated using previous estimates of the volume of stage V–VI oocytes (~400 nL[60]). […] The oocytes were injected with VF-6 suspended in 25 nL ND96 buffer adjusted to pH 5.0, 5.5, 6.0 or 7.0, which corresponded to the injection of 2.5–250 fmol of H^+. The Na^+-dependence of the trans-stimulatory effect of VF-6 was assessed by injecting the oocytes with VF-6 suspended in ND96 buffer (pH 5.5) or a Na^+-free version of this buffer (the Na^+ was replaced with choline).
as §4

PfNT1 = biological target: T2, PfNT1 (Plasmodium falciparum, UniProt Q8IDM6); assay: cell-based; type: cell-based
T2 construct: expressed in transfected cells; host or cells: Xenopus laevis oocytes (stage V-VI), cRNA-injected
T2 sequence (Q8IDM6 whole entry): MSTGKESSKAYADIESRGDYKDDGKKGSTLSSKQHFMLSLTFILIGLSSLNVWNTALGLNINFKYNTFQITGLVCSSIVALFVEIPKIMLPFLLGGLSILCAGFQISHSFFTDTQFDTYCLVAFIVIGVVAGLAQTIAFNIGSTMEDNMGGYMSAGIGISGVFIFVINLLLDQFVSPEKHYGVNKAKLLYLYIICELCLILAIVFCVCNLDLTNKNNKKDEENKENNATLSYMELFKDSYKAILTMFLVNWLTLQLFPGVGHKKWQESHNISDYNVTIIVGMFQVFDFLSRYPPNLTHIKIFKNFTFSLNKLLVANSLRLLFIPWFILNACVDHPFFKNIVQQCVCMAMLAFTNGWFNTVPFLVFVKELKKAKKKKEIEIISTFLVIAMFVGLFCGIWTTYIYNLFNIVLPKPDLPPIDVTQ
Method in brief: (§5)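 Oocytes (ten per treatment, ≥4 independent frogs/days) were preloaded by injecting VF-6 in 25 nL ND96 at pH 5.0, 5.5, 6.0 or 7.0, or Na^+-free choline buffer, then uptake run 1.5 h, 27.5 °C, ND96 pH 5.5 by default. Internal concentrations assumed ~400 nL oocyte volume.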

PfCRT^3D7 [4] = biological target: T1, PfCRT^3D7; assay: cell-based; type: cell-based; remark: listed apart in the source
Method in brief: as §5

T1 sequence (Q8IBZ9 59-398): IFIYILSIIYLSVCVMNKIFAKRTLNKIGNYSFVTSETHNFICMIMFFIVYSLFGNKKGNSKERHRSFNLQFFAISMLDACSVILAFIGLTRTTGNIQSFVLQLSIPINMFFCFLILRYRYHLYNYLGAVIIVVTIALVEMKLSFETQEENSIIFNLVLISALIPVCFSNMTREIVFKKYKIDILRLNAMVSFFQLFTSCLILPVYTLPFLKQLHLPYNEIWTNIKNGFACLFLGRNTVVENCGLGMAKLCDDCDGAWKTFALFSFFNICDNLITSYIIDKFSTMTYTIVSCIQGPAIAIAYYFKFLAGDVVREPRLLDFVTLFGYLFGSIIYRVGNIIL

Compound	Cis-inhibition data: total [3H]CQ transport, normalised to the oocyte type control (PfCRT^3D7 [1])	Total [3H]CQ transport, cis-inhibition by solute (PfCRT^3D7 [1])	Cis-inhibition data: total [3H]CQ transport, normalised to the oocyte type control (non-expressing oocytes [2])	Total [3H]CQ transport, cis-inhibition by solute (non-expressing oocytes [2])	Total [3H]CQ transport, trans-stimulation by injected solute (non-expressing oocytes [3])	Trans-stimulation data: total [3H]CQ transport, normalised to the oocyte type control (non-expressing oocytes [3])	Total [3H]CQ transport, trans-stimulation by injected solute (PfNT1)	Trans-stimulation data: total [3H]CQ transport, normalised to the oocyte type control (PfNT1)	PfCRT-mediated [3H]CQ transport, trans-stimulation by injected solute, PfCRT3D7 (PfCRT^3D7 [4])	Total [3H]CQ transport, trans-stimulation by injected solute (PfCRT^3D7 [4])	Trans-stimulation data: PfCRT-mediated [3H]CQ transport (PfCRT^3D7 [4])	Trans-stimulation data: total [3H]CQ transport, normalised to the oocyte type control (PfCRT^3D7 [4])	Cis-inhibition data: total [3H]CQ transport in the presence of the solute (PfCRT^3D7 [1])	Cis-inhibition data: total [3H]CQ transport in the presence of the solute (non-expressing oocytes [2])	Total [3H]CQ transport, trans-stimulation by solute (non-expressing oocytes [3])	Trans-stimulation data: total [3H]CQ transport with the solute injected (non-expressing oocytes [3])	Total [3H]CQ transport, trans-stimulation by solute (PfNT1)	Trans-stimulation data: total [3H]CQ transport with the solute injected (PfNT1)	Total [3H]CQ transport, trans-stimulation by solute (PfCRT^3D7 [4])	Trans-stimulation data: total [3H]CQ transport with the solute injected (PfCRT^3D7 [4])
N[C@@H](CCC(=O)N[C@@H](CS)C(=O)NCC(=O)O)C(=O)O [Reduced glutathione (GSH)]	100 ± 5.5 and 101 ± 3.7 and 100 ± 4.7	2.7 ± 0.06 and 3.1 ± 0.08 and 3.3 ± 0.07	99 ± 4.6 and 99 ± 4.5 and 101 ± 2.2	2.8 ± 0.2 and 2.6 ± 0.08 and 3.2 ± 0.08	2.7 ± 0.05 and 2.9 ± 0.05	99 ± 4.9 and 101 ± 4.7	3.8 ± 0.07 and 2.7 ± 0.06	98 ± 3.8 and 99 ± 4.4	0.2 ± 0.03 and 0.2 ± 0.01	3.2 ± 0.03	96 ± 3.7 and 98 ± 3.9	98 ± 4.3 and 100 ± 3.8								
Cc1ncc(C[n+]2csc(CCO)c2C)c(N)n1 [Thiamine (Vitamin B1)]	99 ± 9.3 and 99 ± 3.7 and 99 ± 3.0	2.8 ± 0.03 and 2.7 ± 0.07 and 2.8 ± 0.05	99 ± 5.1 and 98 ± 5.2 and 100 ± 4.6	2.7 ± 0.05 and 4.2 ± 0.03 and 2.2 ± 0.06	2.9 ± 0.04 and 3.9 ± 0.05	100 ± 3.7 and 99 ± 4.8	3.7 ± 0.08 and 2.7 ± 0.06	101 ± 3.9	0.1 ± 0.01	3.0 ± 0.05 and 3.0 ± 0.03	99 ± 2.9 and 98 ± 1.9	101 ± 3.5 and 100 ± 3.6								
CC[N+](CC)(CC)CC [Tetraethyl ammonium]		2.7 ± 0.06 and 3.2 ± 0.08 and 3.7 ± 0.02		2.2 ± 0.03 and 3.3 ± 0.08 and 2.8 ± 0.03					0.6 ± 0.02 and 0.7 ± 0.01		97 ± 2.2 and 99 ± 2.6		98 ± 5.7 and 101 ± 5.2 and 98 ± 5.2	99 ± 4.8 and 101 ± 4.7 and 99 ± 3.6	2.5 ± 0.04 and 3.0 ± 0.04	99 ± 3.5 and 98 ± 5.7	3.2 ± 0.1 and 2.8 ± 0.02	99 ± 3.5 and 100 ± 3.6	3.6 ± 0.05 and 3.7 ± 0.05	99 ± 0.3 and 101 ± 3.7

— article PMC7413254 (Nature Communications, 2020)
